ChEMBL document CHEMBL4177730, “Rational modification of semaxanib and sunitinib for developing a tumor growth inhibitor targeting ATP binding site of tyrosine kinase” (2018)
Calls of active or inactive are those of the source. The calls are words filed in the database; no cut-off is given here.

Assays:
SK-MEL-2 [1] = experiment: Growth inhibition of human SK-MEL-2 cells at 10 uM after 48 hrs by sulforhodamine B assay; assay type: functional, cell-based
UO-31 [2] = experiment: Growth inhibition of human UO31 cells after 48 hrs by sulforhodamine B assay; assay type: functional; conditions: UO-31, 48 h
SK-MEL-5 = experiment: Growth inhibition of human SK-MEL-5 cells at 10 uM after 48 hrs by sulforhodamine B assay; assay type: functional, cell-based
BT-549 = experiment: Growth inhibition of human BT549 cells at 10 uM after 48 hrs by sulforhodamine B assay; assay type: functional, cell-based
HL-60(TB) = experiment: Growth inhibition of human HL-60(TB) cells at 10 uM after 48 hrs by sulforhodamine B assay; assay type: functional, cell-based
NCI-H23 = experiment: Growth inhibition of human NCI-H23 cells at 10 uM after 48 hrs by sulforhodamine B assay; assay type: functional, cell-based
HCT-116 = experiment: Growth inhibition of human HCT116 cells at 10 uM after 48 hrs by sulforhodamine B assay; assay type: functional, cell-based
NCI/ADR-RES = experiment: Growth inhibition of human NCI-ADR-RES cells at 10 uM after 48 hrs by sulforhodamine B assay; assay type: functional, cell-based
LOX IMVI = experiment: Growth inhibition of human LOXIMVI cells at 10 uM after 48 hrs by sulforhodamine B assay; assay type: functional, cell-based
NCI-H322M = experiment: Growth inhibition of human NCI-H322M cells at 10 uM after 48 hrs by sulforhodamine B assay; assay type: functional, cell-based
UO-31 [3] = experiment: Growth inhibition of human UO31 cells at 10 uM after 48 hrs by sulforhodamine B assay; assay type: functional, cell-based
MCF7 [4] = experiment: Growth inhibition of human MCF7 cells at 10 uM after 48 hrs by sulforhodamine B assay; assay type: functional, cell-based
SN12C [5] = experiment: Growth inhibition of human SN12C cells at 10 uM after 48 hrs by sulforhodamine B assay; assay type: functional, cell-based
SW-620 = experiment: Growth inhibition of human SW620 cells at 10 uM after 48 hrs by sulforhodamine B assay; assay type: functional, cell-based
UACC-62 = experiment: Growth inhibition of human UACC62 cells at 10 uM after 48 hrs by sulforhodamine B assay; assay type: functional, cell-based
OVCAR-8 = experiment: Growth inhibition of human OVCAR8 cells at 10 uM after 48 hrs by sulforhodamine B assay; assay type: functional, cell-based
SF-268 = experiment: Growth inhibition of human SF268 cells after 48 hrs by sulforhodamine B assay; assay type: functional; conditions: SF-268, 48 h
SNB-19 = experiment: Growth inhibition of human SNB19 cells after 48 hrs by sulforhodamine B assay; assay type: functional; conditions: SNB-19, 48 h
RXF 393 = experiment: Growth inhibition of human RXF393 cells after 48 hrs by sulforhodamine B assay; assay type: functional; conditions: RXF 393, 48 h
HT-29 [6] = experiment: Growth inhibition of human HT-29 cells at 10 uM after 48 hrs by sulforhodamine B assay; assay type: functional, cell-based
COLO 205 = experiment: Growth inhibition of human COLO205 cells after 48 hrs by sulforhodamine B assay; assay type: functional; conditions: COLO 205, 48 h
NCI-H226 = experiment: Growth inhibition of human NCI-H226 cells after 48 hrs by sulforhodamine B assay; assay type: functional; conditions: NCI-H226, 48 h
Malme-3M [7] = experiment: Growth inhibition of human MALME-3M cells after 48 hrs by sulforhodamine B assay; assay type: functional
EKVX = experiment: Growth inhibition of human EKVX cells at 10 uM after 48 hrs by sulforhodamine B assay; assay type: functional, cell-based
MDA-MB-468 = experiment: Growth inhibition of human MDA-MB-468 cells after 48 hrs by sulforhodamine B assay; assay type: functional; conditions: MDA-MB-468, 48 h
CCRF-CEM = experiment: Growth inhibition of human CCRF-CEM cells at 10 uM after 48 hrs by sulforhodamine B assay; assay type: functional, cell-based
OVCAR-5 = experiment: Growth inhibition of human OVCAR5 cells after 48 hrs by sulforhodamine B assay; assay type: functional; conditions: OVCAR-5, 48 h
MDA-MB-435 = experiment: Growth inhibition of human MDA-MB-435 cells at 10 uM after 48 hrs by sulforhodamine B assay; assay type: functional, cell-based
MCF7 [8] = experiment: Growth inhibition of human MCF7 cells after 48 hrs by sulforhodamine B assay; assay type: functional; conditions: MCF7, 48 h
MDA-MB-231 = experiment: Growth inhibition of human MDA-MB-231 cells after 48 hrs by sulforhodamine B assay; assay type: functional; conditions: MDA-MB-231, 48 h
SF-295 = experiment: Growth inhibition of human SF295 cells after 48 hrs by sulforhodamine B assay; assay type: functional; conditions: SF-295, 48 h
Malme-3M [9] = experiment: Growth inhibition of human MALME-3M cells at 10 uM after 48 hrs by sulforhodamine B assay; assay type: functional, cell-based
HT-29 [10] = experiment: Growth inhibition of human HT-29 cells after 48 hrs by sulforhodamine B assay; assay type: functional; conditions: HT-29, 48 h
Hs-578T = experiment: Growth inhibition of human Hs 578T cells at 10 uM after 48 hrs by sulforhodamine B assay; assay type: functional, cell-based
SN12C [11] = experiment: Growth inhibition of human SN12C cells after 48 hrs by sulforhodamine B assay; assay type: functional
A498 = experiment: Growth inhibition of human A498 cells at 10 uM after 48 hrs by sulforhodamine B assay; assay type: functional, cell-based
RPMI-8226 = experiment: Growth inhibition of human RPMI8226 cells at 10 uM after 48 hrs by sulforhodamine B assay; assay type: functional, cell-based
SK-MEL-2 [12] = experiment: Growth inhibition of human SK-MEL-2 cells after 48 hrs by sulforhodamine B assay; assay type: functional; conditions: SK-MEL-2, 48 h
TK-10 = experiment: Growth inhibition of human TK10 cells at 10 uM after 48 hrs by sulforhodamine B assay; assay type: functional, cell-based
A549 = experiment: Growth inhibition of human A549/ATCC cells at 10 uM after 48 hrs by sulforhodamine B assay; assay type: functional, cell-based
HOP-62 = experiment: Growth inhibition of human HOP62 cells after 48 hrs by sulforhodamine B assay; assay type: functional; conditions: HOP-62, 48 h
[13] = read-out: LC50 (the source's name)

Structure (SMILES): O=C1/C(=C\c2cccn2Cc2ccccc2)c2ccccc2N1c1c(Cl)cccc1Cl
- growth inhibition (GI) (SK-MEL-2 [1]): Active
- GI50 (UO-31 [2]): 3.16 µM
- TGI (UO-31 [2]): > 100 µM
- CC50 (UO-31 [2]; [13]): > 100 µM
- growth inhibition (GI) (SK-MEL-5): Active
- growth inhibition (GI) (BT-549): Active
- growth inhibition (GI) (HL-60(TB)): Active
- growth inhibition (GI) (NCI-H23): Active
- growth inhibition (GI) (HCT-116): Active
- growth inhibition (GI) (NCI/ADR-RES): Active
- growth inhibition (GI) (LOX IMVI): Active
- growth inhibition (GI) (NCI-H322M): Active
- growth inhibition (GI) (UO-31 [3]): Active
- growth inhibition (GI) (MCF7 [4]): Active
- growth inhibition (GI) (SN12C [5]): Active
- growth inhibition (GI) (SW-620): Active
- growth inhibition (GI) (UACC-62): Active
- growth inhibition (GI) (OVCAR-8): Active
- GI50 (SF-268): > 100 µM
- TGI (SF-268): > 100 µM
- CC50 (SF-268; [13]): > 100 µM
- GI50 (SNB-19): > 100 µM
- TGI (SNB-19): > 100 µM
- CC50 (SNB-19; [13]): > 100 µM
- GI50 (RXF 393): > 100 µM
- TGI (RXF 393): > 100 µM
- CC50 (RXF 393; [13]): > 100 µM
- growth inhibition (GI) (HT-29 [6]): Active
- GI50 (COLO 205): 1040 nM
- TGI (COLO 205): 9.33 µM
- CC50 (COLO 205; [13]): > 100 µM
- GI50 (NCI-H226): 6.16 µM
- TGI (NCI-H226): > 100 µM
- CC50 (NCI-H226; [13]): > 100 µM
- GI50 (Malme-3M [7]): 3.16 µM
- TGI (Malme-3M [7]): > 100 µM
- CC50 (Malme-3M [7]; [13]): > 100 µM
- growth inhibition (GI) (EKVX): Active
- GI50 (MDA-MB-468): 63 nM
- TGI (MDA-MB-468): 280 nM
- CC50 (MDA-MB-468; [13]): 1380 nM
- growth inhibition (GI) (CCRF-CEM): Active
- GI50 (OVCAR-5): 3.89 µM
- TGI (OVCAR-5): > 100 µM
- CC50 (OVCAR-5; [13]): > 100 µM
- growth inhibition (GI) (MDA-MB-435): Active
- GI50 (MCF7 [8]): 35 nM
- TGI (MCF7 [8]): > 100 µM
- CC50 (MCF7 [8]; [13]): > 100 µM
- GI50 (MDA-MB-231): 5.88 µM
- TGI (MDA-MB-231): > 100 µM
- CC50 (MDA-MB-231; [13]): > 100 µM
- GI50 (SF-295): > 100 µM
- TGI (SF-295): > 100 µM
- CC50 (SF-295; [13]): > 100 µM
- growth inhibition (GI) (Malme-3M [9]): Active
- GI50 (HT-29 [10]): 6.45 µM
- TGI (HT-29 [10]): > 100 µM
- CC50 (HT-29 [10]; [13]): > 100 µM
- growth inhibition (GI) (Hs-578T): Active
- GI50 (SN12C [11]): > 100 µM
- TGI (SN12C [11]): > 100 µM
- CC50 (SN12C [11]; [13]): > 100 µM
- growth inhibition (GI) (A498): Active
- growth inhibition (GI) (RPMI-8226): Active
- GI50 (SK-MEL-2 [12]): 2230 nM
- TGI (SK-MEL-2 [12]): > 100 µM
- CC50 (SK-MEL-2 [12]; [13]): > 100 µM
- growth inhibition (GI) (TK-10): Active
- growth inhibition (GI) (A549): Active
- GI50 (HOP-62): > 100 µM
- TGI (HOP-62): > 100 µM
- CC50 (HOP-62; [13]): > 100 µM
